{
  "source": "patent US5714469A",
  "about": "“Method of treating sepsis” (priority 1994, dated 1998)",
  "data": [
    {"system": "clinical isolate of E. coli isolated from sputum", "assay": "Antibiotic sensitivity by disc-agar diffusion technique", "assay_type": "cell-based", "experimental": "A clinical isolate of E. coli isolated from sputum was utilized. […] The organism was animal passed in mice and subsequently recovered and plated onto MacConkey's agar. The reisolated organisms were grown overnight in brain-heart infusion broth, and then stored frozen at -70° C. The inoculate the fibrin clot, organisms from thawed stocks were inoculated into brainheart infusion broth and incubated overnight on a rotary shaker (120 rpm) an 37° C. The E. coli was harvested by centrifugation, washed 3X and finally resuspended in normal saline. The number or organisms was quantified by turbidimentry, and the concentration adjusted with normal saline. All inoculum sizes were based on viable counts determined by scoring colony forming units on MacConkeys agar.", "values": [
      {"molecule": "CC1(C)S[C@@H]2[C@H](NC(=O)Cc3ccccc3)C(=O)N2[C@H]1C(=O)O", "note": "[penicillin G]", "antibiotic sensitivity of the E. coli isolate": "resistant"},
      {"molecule": "CC(=O)OCC1=C(C(=O)O)N2C(=O)[C@@H](NC(=O)Cc3cccs3)[C@H]2SC1", "note": "[cephalothin]", "antibiotic sensitivity of the E. coli isolate": "sensitive"},
      {"molecule": "NC[C@H]1O[C@H](O[C@H]2[C@H](O)[C@@H](O[C@H]3O[C@H](CO)[C@@H](O)[C@H](N)[C@H]3O)[C@H](N)C[C@@H]2N)[C@H](O)[C@@H](O)[C@@H]1O", "note": "[kanamycin]", "antibiotic sensitivity of the E. coli isolate": "sensitive"},
      {"molecule": "trimethoprin/sulfamethoxazole", "antibiotic sensitivity of the E. coli isolate": "sensitive"},
      {"molecule": "CC[C@H]1OC(=O)[C@H](C)[C@@H](O[C@H]2C[C@@](C)(OC)[C@@H](O)[C@H](C)O2)[C@H](C)[C@@H](O[C@@H]2O[C@H](C)C[C@H](N(C)C)[C@H]2O)[C@](C)(O)C[C@@H](C)C(=O)[C@H](C)[C@@H](O)[C@]1(C)O", "note": "[erythromycin]", "antibiotic sensitivity of the E. coli isolate": "resistant"},
      {"molecule": "gentamicin", "antibiotic sensitivity of the E. coli isolate": "sensitive"},
      {"molecule": "CN(C)[C@@H]1C(O)=C(C(N)=O)C(=O)[C@@]2(O)C(O)=C3C(=O)c4c(O)cccc4[C@@](C)(O)[C@H]3C[C@@H]12", "note": "[tetracycline]", "antibiotic sensitivity of the E. coli isolate": "sensitive"},
      {"molecule": "CC1(C)S[C@@H]2[C@H](NC(=O)[C@H](N)c3ccccc3)C(=O)N2[C@H]1C(=O)O", "note": "[ampicillin]", "antibiotic sensitivity of the E. coli isolate": "sensitive"},
      {"molecule": "O=C(N[C@H](CO)[C@H](O)c1ccc([N+](=O)[O-])cc1)C(Cl)Cl", "note": "[chloramphenicol]", "antibiotic sensitivity of the E. coli isolate": "sensitive"},
      {"molecule": "CN[C@H](CC(C)C)C(=O)N[C@H]1C(=O)N[C@@H](CC(N)=O)C(=O)N[C@H]2C(=O)N[C@H]3C(=O)N[C@H](C(=O)N[C@H](C(=O)O)c4cc(O)cc(O)c4-c4cc3ccc4O)[C@H](O)c3ccc(c(Cl)c3)Oc3cc2cc(c3O[C@@H]2O[C@H](CO)[C@@H](O)[C@H](O)[C@H]2O[C@H]2C[C@](C)(N)[C@H](O)[C@H](C)O2)Oc2ccc(cc2Cl)[C@H]1O", "note": "[vancomycin]", "antibiotic sensitivity of the E. coli isolate": "resistant"}
    ]}
  ]
}
